Here are results for 5 compounds from patent US11613750B2, “Methods of reducing virus molecule levels” (priority 2019, dated 2023).

Data set [1] deals with HBsAg. To be noted: read-out: EC50, Extracell. HBsAg reduction; HepG2.2.15 cells.
Data set [2] deals with HepG2.2.15 cells. As to the kind of experiment: HepG2.2.15 cell viability, CellTiter-Glo. To be noted: read-out: CC50, HepG2.2.15 cell viability; highest concentration tested 80 nM. A general note: In ATP-based viability assays light output follows the ATP content of the culture.
Data set [3] relates to HBeAg. To be noted: 10 nM siRNA transfected into cells.
Data set [4] has as its system GRP78 mRNA. As to the kind of experiment: Target mRNA reduction by RT-qPCR in HepG2.2.15 cells. Format: cell-based, human. To be noted: 10 nM siRNA.
In data set [5] the test system is GRP78 protein. As to the kind of experiment: Target protein reduction by Western blot in HepG2.2.15 cells. Format: cell-based, human. To be noted: 10 nM siRNA, 72 h. A general note: A western blot detects proteins with antibodies after separation by electrophoresis.
The subject of data set [6] is HCoV-OC43. As to the kind of experiment: OC43 virion RNA, Branched DNA assay, infected HCT8 cells. Format: cell-based, human coronavirus OC43. Also on record: reduction in OC43 vRNA: dose or concentration left out as unconfirmed. To be noted: for OC43 vRNA reduction siRNA and siGRP78: 10 nM siRNA along with 10 nM of siRNA targeting GRP78, HCT8 cells; for OC43 vRNA reduction: 10 nM siRNA.

For data set [7], the system named is SRSF1 mRNA. Nature of the data set: Target mRNA reduction by RT-qPCR in HepG2.2.15 cells. Format: cell-based, human. To be noted: 10 nM siRNA. (Quantitative PCR measures a nucleic acid by following its amplification.)
Data set [8] has as its system SRSF1 protein. As to the kind of experiment: Target protein reduction by Western blot in HepG2.2.15 cells. Format: cell-based, human. To be noted: 10 nM siRNA, 72 h.
Data set [9] deals with RPLP1 mRNA. As to the kind of experiment: Target mRNA reduction by RT-qPCR in HepG2.2.15 cells. Format: cell-based, human. To be noted: 10 nM siRNA.
Data set [10] concerns RPLP1 protein. As to the kind of experiment: Target protein reduction by Western blot in HepG2.2.15 cells. To be noted: 10 nM siRNA, 72 h. Format: cell-based, human.
Data set [11] deals with HCoV-OC43. As to the kind of experiment: OC43 virion RNA, RT-qPCR of the OC43 N gene, infected HCT8 cells. Format: cell-based, human coronavirus OC43. On the set-up: dose or concentration left out as unconfirmed.

In general, EC50 refers to the concentration at which the effect is half-maximal. In general, CC50 refers to the concentration at which the toxic effect on the cells reaches its halfway point. Consider “21 (CUGUUACAAUCAAGGUCUATTUAGACCUUGAUUGUAACAGTT; siRNA; Self-complementary hairpin strand, chemistry not given here, further chemistry not given here; listed as Homo sapiens) [compound 21]”, for which the EC50 in data set [1] was determined as 1.6 nM. Moreover, the CC50 in data set [2] was over 80 nM. Further, in [3], the “HBeAg reduction HepG2.2.15 cells” value was found to be 61.5 ± 10%. The “Target RNA reduction in HepG2.2.15 cells” value in data set [4] is 90 ± 3%. In data set [5], the “Target protein reduction in HepG2.2.15 cells” value (“Target protein reduction” below) is listed as 59 ± 2%. Besides, in data set [6], the “OC43 vRNA reduction siRNA and siGRP78” value is given as 90 ± 4%. Also, in [6] (HCT8 cells), the “OC43 vRNA reduction” value stood at 89 ± 8%.
For the compound “22 (CAUCUACGUGGGUAACUUAUUUAAGUUACCCACGUAGAUGUU; siRNA; Self-complementary hairpin strand, chemistry not given here, further chemistry not given here; listed as Homo sapiens) [compound 22]”, in data set [1], the EC50 was 0.9 nM. Moreover, in data set [2], the CC50 was over 80 nM. Besides, the “HBeAg reduction HepG2.2.15 cells” value in [3] came to 33.5 ± 5%. Besides, the “Target RNA reduction in HepG2.2.15 cells” value in data set [7] worked out at 71 ± 1%. For the same compound, in data set [8], the “Target protein reduction” value was 92 ± 20%. Besides, in data set [6], the “OC43 vRNA reduction siRNA and siGRP78” value is 85 ± 4%. For the same compound, the “OC43 vRNA reduction” value in data set [6] (HCT8 cells) is 36 ± 3%.
As to “23 (CUGGAUAACACUAAGUUUAUUUAAACUUAGUGUUAUCCAGUU; siRNA; Self-complementary hairpin strand, chemistry not given here, further chemistry not given here; listed as Homo sapiens) [compound 23]”, the EC50 in data set [1] was determined as 3.9 nM. Also, the CC50 in [2] is over 80 nM. Further, the “HBeAg reduction HepG2.2.15 cells” value in data set [3] is 29.8 ± 3%. Also, the “Target protein reduction” value in data set [8] came to 81 ± 11%.
In the case of “32 (AGAAGAAAGUGGAAGCAAAGAUUUCUUUGCUUCCACUUUCUUCUUU; siRNA; Self-complementary hairpin strand, chemistry not given here, further chemistry not given here; listed as Homo sapiens) [compound 32]”, in [1], the EC50 was 0.525 nM. In addition, the CC50 in data set [2] was over 80 nM. Further, the “HBeAg reduction HepG2.2.15 cells” value in data set [3] was 32 ± 6%. For the same compound, the “Target RNA reduction in HepG2.2.15 cells” value in data set [9] came to 80 ± 7%. For the same compound, the “Target protein reduction” value in data set [10] turned out to be 71 ± 8%. For the same compound, in data set [6], the “OC43 vRNA reduction siRNA and siGRP78” value came to 86 ± 4%. The “OC43 vRNA reduction” value in [6] (HCT8 cells) amounted to 87 ± 4%.
In the case of `CCC(CC)COC(=O)[C@H](C)N[P@](=O)(OC[C@H]1O[C@@](C#N)(c2ccc3c(N)ncnn23)[C@H](O)[C@@H]1O)Oc1ccccc1` [Remdesivir, reference compound], the “reduction in OC43 vRNA” value in data set [6] (HCT8 cells) was “more than 98%”. Besides, in data set [11], the “OC43 virion production remaining” value is reported as “less than 5%”.
